Earlier results in EP0023178A1, “Process for the preparation of concentrated solutions of amygdaline in its natural form” (SOMET, Société dite, priority 1979, dated 1981).

Conditions: water

**Q.** For `N#CC(OC1OC(COC2OC(CO)C(O)C(O)C2O)C(O)C(O)C1O)c1ccccc1` (stereo not drawn) [amygdaline, D ou R mandélonitrile β-gentiobioside trihydraté], which “solubilité dans l'eau” value is on record?
**A.** The value was 8-8,5%.
